Where a SMILES comes first, the peptide text is derived from it. Bridges are numbered along the chain shown (N, C = ends).
Columns and labels:
Trx-gp5Δ22 interaction = Trx-gp5Δ22 interaction (Escherichia coli, UniProt P0AA25); assay: biochemical; parameters: species or system E. coli (Trx); bacteriophage T7 (gp5Δ22)
E. coli Trx = E. coli Trx (Escherichia coli, UniProt P0AA25); assay: dilution binding assay of biotinylated TP-2 to immobilized Trx
human Src SH3 domain = assay: phage ELISA, binding to human Src SH3 domain; details: immobilized on polystyrene plates, O.D. 405 nm, triplicate wells
Src SH3 = details: read-out: KD, Src SH3 and its peptide ligand; ref [23]; cited from earlier work

Sequence of E. coli Trx (P0AA25 whole entry, the tested form may be a part): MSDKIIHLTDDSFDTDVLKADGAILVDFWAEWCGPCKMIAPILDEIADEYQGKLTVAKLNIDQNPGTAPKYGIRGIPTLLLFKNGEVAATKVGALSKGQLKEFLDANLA
Sequence of Trx-gp5Δ22 interaction (P0AA25 2-109, stated change not applied): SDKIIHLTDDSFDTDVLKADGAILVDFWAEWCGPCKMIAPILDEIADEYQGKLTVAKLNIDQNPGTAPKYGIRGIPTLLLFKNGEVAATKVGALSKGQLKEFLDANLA

Compound	IC50 (Trx-gp5Δ22 interaction)	Kd (E. coli Trx)	reduction of peptide binding in the presence of DTT (E. coli Trx; 10 mM DTT, data not shown)	binding to human Src SH3 domain (human Src SH3 domain)	Kd (Src SH3)
CC[C@H](C)[C@H](NC(=O)[C@H](CC(C)C)NC(=O)[C@H](CCCNC(=N)N)NC(=O)[C@H](CC(=O)O)NC(=O)[C@@H]1CCCN1C(=O)[C@@H](NC(=O)[C@@H](NC(=O)[C@@H]1CSSC[C@H](NC(=O)[C@H](CC(N)=O)NC(=O)[C@@H](NC(=O)[C@H](CC(N)=O)NC(=O)[C@H](CCCNC(=N)N)NC(=O)[C@@H](N)CO)C(C)C)C(=O)N[C@@H](CC(N)=O)C(=O)N[C@@H](C)C(=O)N[C@@H](CO)C(=O)N[C@@H](C(C)C)C(=O)N1)[C@@H](C)O)[C@@H](C)CC)C(=O)N[C@H](C(=O)N[C@@H](CC(=O)O)C(=O)N[C@@H](CC(N)=O)C(=O)N1CCC[C@H]1C(=O)NCC(=O)N[C@@H](CO)C(=O)NCC(=O)N[C@@H](CO)C(N)=O)[C@@H](C)O [TP-2] (H-SRNVNCNASVCTIPDRLITDNPGSGS-NH2; disulfide 6-11)	~10 µM	2 µM	> 50%	–	–
H-SSRPLPPLPGS-NH2 [Src SH3 peptide ligand]	–	–	–	binds to Src SH3 domain	~5 µM
